# PubChem BioAssay (NCI)
#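 Step 1: Grow cells in 96-well plates. Step 2: Expose to compound for 48 hours at 5 concentrations. Step 3: Interpolate endpoints linearly; if unreached, use highest concentration. Here, GI50 denotes the concentration required for 50% inhibition of growth. TGI: concentration producing complete growth inhibition.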
# Key:
# Assay in all cases: inhibition of tumour cell growth, NCI panel, 48 h
# OVCAR-3 ovarian = system: OVCAR-3 ovarian
# SF-539 CNS = system: SF-539 CNS
# NCI-H23 lung = system: NCI-H23 lung
# MDA-MB-435 = system: MDA-MB-435
# A498 renal = system: A498 renal
# OVCAR-5 ovarian = system: OVCAR-5 ovarian
# SK-MEL-2 melanoma = system: SK-MEL-2 melanoma
# HCT-116 colon = system: HCT-116 colon
# 786-0 renal = system: 786-0 renal
# SNB-75 CNS = system: SNB-75 CNS
Structure (SMILES),TGI (OVCAR-3 ovarian),TGI (SF-539 CNS),TGI (NCI-H23 lung),TGI (MDA-MB-435),TGI (A498 renal),TGI (OVCAR-5 ovarian),TGI (SK-MEL-2 melanoma),TGI (HCT-116 colon),TGI (786-0 renal),TGI (SNB-75 CNS),GI50 (OVCAR-3 ovarian),GI50 (SF-539 CNS),GI50 (NCI-H23 lung),GI50 (MDA-MB-435),GI50 (A498 renal),GI50 (OVCAR-5 ovarian),GI50 (SK-MEL-2 melanoma),GI50 (HCT-116 colon),GI50 (786-0 renal),GI50 (SNB-75 CNS)
COc1cc(/C=C/C(=O)Oc2ccccc2)ccc1C(=O)O/C=C/c1ccccc1,> 31.6 µM,> 100 µM,> 100 µM,> 100 µM,> 21.5 µM,> 100 µM,> 100 µM,> 100 µM,> 100 µM,> 100 µM,,,,,,,,,,
CCOC(=O)C1=C(N)Oc2c(sc3c(C)cccc23)C1c1ccc(F)cc1 (centres undefined),13.1 µM,3.48 µM,14.3 µM,0.464 µM,1.26 µM,17.6 µM,24.8 µM,11.8 µM,17.9 µM,11.7 µM,0.403 µM,0.36 µM,0.808 µM,0.21 µM,0.211 µM,1.67 µM,5.39 µM,0.429 µM,1.25 µM,0.265 µM
CNC(C)[C@H]1CCC2C3CC=C4C(=O)[C@@H](NC(=O)C=C(C)C)CC[C@]4(C)C3CC[C@@]21C (some centres undefined),6.04 µM,2.64 µM,12.2 µM,3.27 µM,8.26 µM,10.9 µM,6.9 µM,2.53 µM,3.16 µM,10.4 µM,1.82 µM,1.3 µM,2.37 µM,1.36 µM,1.3 µM,2.53 µM,2.74 µM,1.09 µM,1.56 µM,2.26 µM
COc1ccc2c(c1)C(C)Cc1c(ncnc1-n1cnc3ccccc31)N2C (centres undefined),3.41 µM,0.774 µM,18.2 µM,0.605 µM,10.2 µM,43.9 µM,24.6 µM,12.7 µM,19.6 µM,,0.357 µM,0.251 µM,0.44 µM,0.2 µM,0.234 µM,6.21 µM,0.357 µM,0.494 µM,0.591 µM,
COc1cc(C(=O)O[C@H](C(N)=O)[C@]2(C)CO2)c2cccc(C)c2c1,8.21 µM,< 0.0465 µM,,0.126 µM,15.4 µM,6.01 µM,0.0478 µM,2.32 µM,5.75 µM,4.13 µM,< 0.0317 µM,< 0.0121 µM,< 0.0203 µM,< 0.0215 µM,4.31 µM,0.766 µM,< 0.01 µM,0.431 µM,2.31 µM,0.933 µM
c1ccc(NCCSc2nc3ccccc3s2)cc1,> 100 µM,,> 100 µM,> 100 µM,> 100 µM,> 100 µM,> 100 µM,> 100 µM,> 100 µM,> 100 µM,,,,,,,,,,
O=C(NC1CCCCC1)c1ccc(Nc2ncnc3c2cnn3-c2ccccc2)cc1,> 100 µM,17.1 µM,89.9 µM,> 100 µM,39.4 µM,95.2 µM,36.2 µM,> 100 µM,18.3 µM,5.4 µM,14.3 µM,3.81 µM,10.9 µM,67.8 µM,3.83 µM,15.2 µM,13.6 µM,4.01 µM,3.47 µM,1.71 µM
Cn1c(=S)c2[nH]c(SCCCc3ccccc3)nc2n(C)c1=O,> 100 µM,> 100 µM,> 100 µM,> 100 µM,49.1 µM,93.3 µM,> 100 µM,> 100 µM,> 100 µM,84.5 µM,,,,,,,,,,
COc1cc2c3c(n(CCCN(CCO)CCO)c(=O)c2cc1OC)-c1cc2c(cc1C3=O)OCO2,0.295 µM,< 0.0264 µM,0.139 µM,0.842 µM,0.345 µM,1.31 µM,> 33 µM,0.0679 µM,0.0646 µM,2.19 µM,0.062 µM,< 0.01 µM,< 0.01 µM,< 0.0369 µM,< 0.01 µM,0.209 µM,8.79 µM,< 0.01 µM,< 0.01 µM,0.0811 µM
COc1ccc(-c2nn(-c3cccc(Cl)c3)cc2-c2nc(N)[nH]c(=O)c2C#N)cc1,10 µM,32.2 µM,46.2 µM,5.48 µM,6.75 µM,51.4 µM,15.8 µM,16.2 µM,33.5 µM,21.1 µM,3.38 µM,6.59 µM,5.44 µM,2.16 µM,1.47 µM,14.6 µM,3.94 µM,4.35 µM,4.65 µM,2.88 µM
CS(=O)(=O)CS(=O)(=O)OCCCl,983 µM,266 µM,494 µM,2330 µM,1350 µM,1260 µM,856 µM,661 µM,514 µM,256 µM,,,,,,,,,,
COc1cc(/C=C/C(=O)C(C(=O)/C=C/c2ccc(OC(=O)CCNC34CC5CC(CC(C5)C3)C4)c(OC)c2)C(=O)CCNC23CC4CC(CC(C4)C2)C3)ccc1OC(=O)CCNC12CC3CC(CC(C3)C1)C2 (centres undefined),> 100 µM,5.01 µM,> 100 µM,35.3 µM,13.6 µM,19.6 µM,> 100 µM,10.7 µM,> 100 µM,33.3 µM,4.98 µM,2.27 µM,5.02 µM,2.88 µM,3.47 µM,5.65 µM,3.53 µM,2.94 µM,4.19 µM,4.86 µM
Nc1c(C(=O)Nc2ccccc2Cl)sc2nc3c(cc12)C(=O)CCC3,> 100 µM,> 100 µM,> 100 µM,0.349 µM,> 100 µM,> 100 µM,> 100 µM,> 100 µM,> 100 µM,> 84 µM,1.22 µM,1.15 µM,2.04 µM,0.137 µM,0.229 µM,> 100 µM,1.09 µM,54.9 µM,37.7 µM,2.46 µM
CN1C(NNC(=O)c2cccnc2)=NS(=O)(=O)c2cc(Cl)ccc21,> 100 µM,> 100 µM,> 100 µM,> 100 µM,> 100 µM,> 100 µM,> 100 µM,> 100 µM,> 100 µM,> 100 µM,> 100 µM,> 100 µM,> 100 µM,> 100 µM,> 100 µM,> 100 µM,> 100 µM,> 100 µM,> 100 µM,> 100 µM
CC1(C)N=C(N)N=C(N)N1c1cccc(OCCOc2cccc([N+](=O)[O-])c2)c1,> 100 µM,> 100 µM,> 100 µM,> 100 µM,> 100 µM,> 100 µM,> 100 µM,> 100 µM,> 100 µM,> 100 µM,5.13 µM,3.41 µM,1.73 µM,0.495 µM,> 67.7 µM,1.88 µM,15.2 µM,0.777 µM,37 µM,3.26 µM
O=C1C=C(Nc2ccc(S(=O)(=O)Nc3nccs3)cc2)c2ccccc2C1=O,36 µM,41.2 µM,> 100 µM,33.5 µM,> 100 µM,43.9 µM,82.4 µM,> 100 µM,> 100 µM,66.8 µM,,,,,,,,,,
NCCCn1c2c(c3ccccc3c1=O)C(=O)c1ccccc1-2,5.25 µM,1.13 µM,0.977 µM,3.07 µM,0.919 µM,2.94 µM,12.5 µM,,1.01 µM,3.71 µM,0.721 µM,0.104 µM,,0.7 µM,0.0481 µM,0.306 µM,4.31 µM,0.259 µM,0.119 µM,0.539 µM
Oc1ccc(/C=C/c2cc(O)cc3c2C(c2cc(O)cc(O)c2)C(c2ccc(O)c(O)c2)O3)cc1 (centres undefined),56.4 µM,> 100 µM,63.9 µM,> 100 µM,> 100 µM,> 100 µM,74.8 µM,> 100 µM,> 100 µM,> 100 µM,,,,,,,,,,
COc1ccc(-c2cc(-c3ccc(Nc4ccnc5cc(Cl)ccc45)cc3)nc(N3CCOCC3)n2)cc1,,,> 100 µM,> 100 µM,86.7 µM,> 100 µM,61.5 µM,> 100 µM,5.72 µM,5.32 µM,,,4.99 µM,2.92 µM,27.5 µM,> 100 µM,11.7 µM,2.96 µM,2.26 µM,1.52 µM
Cc1cc(NCCCCNc2ccnc3cc(Cl)ccc23)nc(Nc2ccc(C(=O)N3CCCCC3)cc2)n1,3.44 µM,,5.73 µM,3.42 µM,3.72 µM,9.22 µM,3.9 µM,,2.97 µM,3.29 µM,1.7 µM,,2.27 µM,1.82 µM,1.61 µM,3.04 µM,2.05 µM,,1.42 µM,1.72 µM
COC(=O)C(=O)CC(=O)c1cccc(OC)c1,> 100 µM,> 100 µM,> 100 µM,> 100 µM,> 100 µM,> 100 µM,,> 100 µM,> 100 µM,> 100 µM,,,,,,,,,,
CC(C)(C)c1cc(C(=O)/C=C/c2ccc(C(=O)O)cc2)cc(C(C)(C)C)c1,7.31 µM,2.97 µM,,6.66 µM,3.52 µM,17.2 µM,12.7 µM,10.4 µM,13.9 µM,15 µM,,,,,,,,,,
